Data reported in ChEMBL document CHEMBL1133952, “Identification of E2F-1/Cyclin A antagonists” (Bioorg Med Chem Lett, 2001).
Residues, ends and D or L forms follow the SMILES beside them. *: point of attachment. Cyclohexanecarbonyl = O=C(C1CCCCC1)*; Cyclopentanecarbonyl = O=C(C1CCCC1)*; Cyclopropanecarbonyl = O=C(C1CC1)*; Isobutyryl = CC(C)C(=O)*; Piv = CC(C)(C)C(=O)*; Propionyl = CCC(=O)*; Bz = O=C(c1ccccc1)*

Assay: In vitro inhibitory activity against E2F-1/Cyclin A was determined using ELISA assay

IC50	Compound
100 nM	CC(C)C[C@H](NC(=O)[C@H](CC(=O)O)NC(=O)[C@H](CC(C)C)NC(=O)[C@H](CCCN=C(N)N)NC(=O)[C@H](CCCN=C(N)N)NC(=O)[C@H](CCCCN)NC(=O)[C@@H](NC(=O)[C@@H]1CCCN1)C(C)C)C(=O)O
250 nM	CC(=O)N1CCC[C@H]1C(=O)N[C@H](C(=O)N[C@@H](CCCCN)C(=O)N[C@@H](CCCN=C(N)N)C(=O)N[C@@H](CCCCN)C(=O)N[C@@H](CC(C)C)C(=O)N[C@H](Cc1ccccc1)C(=O)NCC(=O)O)C(C)C
5000 nM	CC(=O)N1CCC[C@H]1C(=O)N[C@H](C(=O)N[C@@H](CCCCN)C(=O)N[C@@H](CCCN=C(N)N)C(=O)N[C@H](CCCCN)C(=O)N[C@@H](CC(C)C)C(=O)N[C@@H](Cc1ccccc1)C(=O)NCC(=O)O)C(C)C
30000 nM	CC(=O)N[C@@H](CCCN=C(N)N)C(=O)N[C@@H](CCCCN)C(=O)N[C@@H](CC(C)C)C(=O)N[C@@H](Cc1ccccc1)C(=O)NCC(=O)O
100 nM	CC(=O)N1CCC[C@H]1C(=O)N[C@H](C(=O)N[C@@H](CCCCN)C(=O)N[C@@H](CCCN=C(N)N)C(=O)N[C@@H](CCCCN)C(=O)N[C@@H](CC(C)C)C(=O)N[C@@H](Cc1ccccc1)C(=O)NCC(=O)O)C(C)C
45000 nM	CC(=O)N1CCC[C@H]1C(=O)N[C@H](C(=O)N[C@@H](CCCCN)C(=O)N[C@H](CCCN=C(N)N)C(=O)N[C@@H](CCCCN)C(=O)N[C@@H](CC(C)C)C(=O)N[C@@H](Cc1ccccc1)C(=O)NCC(=O)O)C(C)C
45000 nM	CC(=O)N[C@@H](CCCCN)C(=O)N[C@@H](CC(C)C)C(=O)N[C@@H](Cc1ccccc1)C(=O)NCC(=O)O (Ac-KLFG-OH)
1500 nM	CC(C)C[C@H](NC(=O)[C@H](CCCCN)NC(=O)[C@H](CCCN=C(N)N)NC(=O)[C@H](CCCCN)NC(=O)c1ccccc1)C(=O)N[C@@H](Cc1ccccc1)C(=O)NCC(=O)O (Bz-KRKLFG-OH)
450 nM	CC(C)C[C@H](NC(=O)[C@H](CCCCN)NC(=O)[C@H](CCCN=C(N)N)NC(=O)[C@H](CCCCN)NC(=O)C1CCCCC1)C(=O)N[C@@H](Cc1ccccc1)C(=O)NCC(=O)O (Cyclohexanecarbonyl-KRKLFG-OH)
350 nM	CC(C)C[C@H](NC(=O)[C@H](CCCCN)NC(=O)[C@H](CCCN=C(N)N)NC(=O)[C@H](CCCCN)NC(=O)C1CCCC1)C(=O)N[C@@H](Cc1ccccc1)C(=O)NCC(=O)O (Cyclopentanecarbonyl-KRKLFG-OH)
150 nM	CC(C)C[C@H](NC(=O)[C@H](CCCCN)NC(=O)[C@H](CCCN=C(N)N)NC(=O)[C@H](CCCCN)NC(=O)C1CC1)C(=O)N[C@@H](Cc1ccccc1)C(=O)NCC(=O)O (Cyclopropanecarbonyl-KRKLFG-OH)
150 nM	CC(C)C[C@H](NC(=O)[C@H](CCCCN)NC(=O)[C@H](CCCN=C(N)N)NC(=O)[C@H](CCCCN)NC(=O)C(C)C)C(=O)N[C@@H](Cc1ccccc1)C(=O)NCC(=O)O (Isobutyryl-KRKLFG-OH)
150 nM	CC(C)C[C@H](NC(=O)[C@H](CCCCN)NC(=O)[C@H](CCCN=C(N)N)NC(=O)[C@H](CCCCN)NC(=O)C(C)(C)C)C(=O)N[C@@H](Cc1ccccc1)C(=O)NCC(=O)O (Piv-KRKLFG-OH)
450 nM	CCC(=O)N[C@@H](CCCCN)C(=O)N[C@@H](CCCN=C(N)N)C(=O)N[C@@H](CCCCN)C(=O)N[C@@H](CC(C)C)C(=O)N[C@@H](Cc1ccccc1)C(=O)NCC(=O)O (Propionyl-KRKLFG-OH)
200 nM	CC(C)C[C@H](NC(=O)[C@H](CC(N)=O)NC(=O)[C@H](CCCN=C(N)N)NC(=O)C(CS)NC(=O)[C@H](C)NC(=O)C(N)CO)C(=O)N[C@@H](Cc1ccccc1)C(=O)NCC(=O)O (single isomer, unassigned)
200 nM	Ac-AKRKLFG-OH
1000 nM	Ac-KRKLFG-OH
100 nM	H-PAKRKLFG-OH
> 100000 nM	H-PVKARADL-OH
